Reference: US20080057138A1, “RESTORATIVE SKIN CREAM” (Telford Holdings Ltd., priority 2006, published 2008)

Experiments:
sunburns [1] = experiment: ability to prevent sunburns (SPF equivalent) after topical application; format: in vivo, human
Description: Each of the three vitamins A, C and E, and complexes thereof, when topically applied individually at therapeutic levels, markedly increases the ability of the skin to absorb free radicals. Each vitamin molecule, as a measurement of this effect, adds the ability to absorb 2 MEDs (minimal erythema dose) of energy or a total of 6 MEDS if all three vitamins are present simultaneously. […] SPF (Sun Protection Factor) is a recognized measure of ultraviolet screen ability. Simultaneous application of a tri-vitamin regimen of vitamins A, C and E can result in an SPF equivalent of 24. Use of the three vitamins together in effective amounts results in enhanced protection of the skin against sunburn and, unlike sunscreens per se, persists in effect until the molecules are consumed by the body. […] The enhancement of photo protection by the tri-vitamin therapy according to the invention is particularly important as a solar spectrum (UVA, UVB) sun protectant. The effects of simultaneous use of the tri-vitamin regime and sunscreens are additive.
One measure of the activity has been to assess the ability to prevent sunburns.

photo aging = experiment: open label proof of concept trials over 5 years in 300 patients, reversal of photo aging; format: in vivo, human
Description: Animal models have an inherent limitation and are not necessarily directly applicable to humans. For example, various mammalian species have different metabolic characteristics. In particularly, most animals have the capacity to manufacture their own vitamin C.
Indeed, the studies appear to indicate a synergetic effect between vitamins C and E in the morning, and vitamins A and E in the evening.

sunburns [2] = experiment: Example 4: UVB sunburn study in 34 volunteers, test compounds applied before or after 1 or 3 MEDs of UVB; format: in vivo, human; settings: for prevention of the development of sunburns: applied daily for 3 days before 1 or 3 MEDs of UVB; for treatment of the induced sunburns, review of the data of the left side: left side of the back
Method: In a study conducted by a practicing dermatologist, after informed consent, 34 volunteers were treated in the following manner. On the left side of the back, one inch squares were marked and treated daily for 3 days with 12 test compounds including a control of vehicle and a commercial identified sunscreen. After determining the MED (minimal erythema dose) for each subject, each subject was treated with one or 3 MEDs of UVB on both sides of the back. On the right side, 18 test compounds were applied including a vehicle control post sunburn at 0 hours, 8 hours, 24 and 48 hours. Measurements of the severity of the burns were recorded as the end point at 8, 24 and 48 hours.

sunburns [3] = settings: cited from earlier work; for SPF equivalent: topical application, background section, no trial described
photo ageing = experiment: Example 2: side effects in patients treated for photo ageing, topical tretinoin versus formulations of the invention; format: in vivo, human
Description: In a trial conducted by a practicing dermatologist, involving 267 patients undergoing treatment for photo ageing using slowly increasing strengths of topical tretinoin, side effects were frequent and prolonged. An average of 3.7 reactions sufficiently severe to cause discontinuation of therapy were experienced and each reaction required discontinuation of treatment for an average of 7.7 days. Only 14% of patients were able to be treated without side effects at the commercially available strength of 0.1% tretinoin. […] The side effects were mild and were ameliorated by re-introducing the regime as alternate day treatment in the areas of irritation. Only 1.5% of patients were unable to tolerate the regime.

| Compound | effect on sunburn (sunburns [1]) | prevention of the development of sunburns (sunburns [2]) | treatment of the induced sunburns, review of the data of the left side (sunburns [2]) | SPF equivalent (sunburns [3]) | also measured |
| --- | --- | --- | --- | --- | --- |
| Cc1c(C)c2c(c(C)c1O)CC[C@@](C)(CCC[C@H](C)CCC[C@H](C)CCCC(C)C)O2 [vitamin E, α-tocopherol] | significantly ameliorated the signs and symptoms of sunburn | able to prevent the development of sunburns | significant visible improvement | – | clinical effect on photo aging (photo aging; topical): enhance reversal of photo aging; treatment of sunburns (sunburns [2]; applied post sunburn): statistically visible significant treatment benefit |
| O=C1O[C@H]([C@@H](O)CO)C(O)=C1O [vitamin C, L-ascorbic acid] | effective in reducing sunburns | able to prevent the development of sunburns | significant visible improvement | – | persistence of photoprotection (sunburns [3]; following a single application): at least 4 days |
| CCCCCCCCCCCCCCCC(=O)OC/C=C(C)/C=C/C=C(C)/C=C/C1=C(C)CCCC1(C)C [vitamin A palmitate, retinyl palmitate] | – | – | – | 20 | frequency of irritation (photo aging; compared with topical tretinoin): markedly reduced frequency of irritation |
| CC1=C(/C=C/C(C)=C/C=C/C(C)=C/C(=O)O)C(C)(C)CCC1 [tretinoin, all-trans retinoic acid] | – | – | – | – | average discontinuation of treatment per reaction (photo ageing; 267 patients): 7.7 days; average reactions sufficiently severe to cause discontinuation of therapy (photo ageing; 267 patients, slowly increasing strengths): 3.7; patients able to be treated without side effects (photo ageing; at commercially available strength of 0.1%): 14% |
| CC1=C(/C=C/C(C)=C/C=C/C(C)=C/CO)C(C)(C)CCC1 [retinol] | – | – | – | 20 | – |
